Experimental data from paper PMC7465109, “Discovery of Sulfated Small Molecule Inhibitors of Matrix Metalloproteinase-8” (Biomolecules, 2020).

What was measured:
[1] = target: T1, MMP-9 (Homo sapiens, UniProt P14780); test: MMP-9 inhibitor screening assay kit (Abcam #ab139448); assay type: biochemical; conditions: NSGM 100 µM; read-out: MMP-9 inhibition in screen
T1 construct: purchased Abcam (Cambridge, UK) ab139448
Procedure: Screening of sulfated benzofurans and quinazolinones (100 µM, final) against MMP-9 was performed using a commercially available assay kit (Abcam catalog #ab139448) following manufacturer’s protocol. All experiments were performed at least twice in duplicates.

[2] = target: T2, MMP-8 (Homo sapiens, UniProt P22894); test: Direct inhibition of MMP-8, fluorogenic substrate hydrolysis assay; assay type: biochemical; conditions: for IC50 / ΔY (efficacy of MMP-8 inhibition): Tris-buffered saline, 10 mM CaCl2, 1 µM ZnCl2, pH 7.5, 37 °C; for IC50: error ± 1 SD, read-out: IC50 (potency of MMP-8 inhibition); for ΔY (efficacy of MMP-8 inhibition): from dose-response regression
T2 construct: purchased R&D Systems (Minneapolis, MN, USA)
Procedure: NSGMs were screened for the inhibition of MMP-8 using a fluorogenic substrate assay, as described earlier. Briefly, 100 µg/mL pro-MMP-8 was activated by incubating with 1mM p-aminomercuric acetate at 37 °C for 1 hr. Activated MMP-8 (10 nM, final) was then incubated with NSGMs (100 µM, final) in Tris-buffered saline containing 10 mM CaCl2,1 µM ZnCl2, pH 7.5 for 10 min at 37 °C. Residual MMP-8 activity was measured by adding the fluorogenic substrate (DNP-Pro-Leu-Ala- Tyr-Trp-Ala-Arg, 20 µM, final) and monitoring initial linear rate of increase in fluorescence. IC50s were calculated using the following equation, Y=Y0+YM−Y0/1+10^(log[I]0−logIC50)×HS . Y is the ratio of residual enzyme activity in the presence of NSGM to that in its absence, Y0 and YM are the minimal and maximal values of Y, respectively, obtained following regression, and HS is the Hill slope of inhibition.

[3] = NSGM 100 µM, MMP-8 10 nM, pH 7.5, 37 °C

T2 sequence (P22894 101-467): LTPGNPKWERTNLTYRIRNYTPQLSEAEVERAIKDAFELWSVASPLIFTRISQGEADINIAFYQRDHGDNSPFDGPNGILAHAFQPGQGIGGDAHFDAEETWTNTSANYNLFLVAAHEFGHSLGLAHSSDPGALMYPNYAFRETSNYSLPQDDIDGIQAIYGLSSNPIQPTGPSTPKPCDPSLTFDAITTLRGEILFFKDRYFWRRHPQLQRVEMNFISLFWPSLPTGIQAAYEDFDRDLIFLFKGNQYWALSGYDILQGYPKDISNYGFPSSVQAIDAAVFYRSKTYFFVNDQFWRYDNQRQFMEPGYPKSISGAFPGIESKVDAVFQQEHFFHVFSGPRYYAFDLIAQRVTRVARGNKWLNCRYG
T1 sequence (P14780 107-444 limits assumed): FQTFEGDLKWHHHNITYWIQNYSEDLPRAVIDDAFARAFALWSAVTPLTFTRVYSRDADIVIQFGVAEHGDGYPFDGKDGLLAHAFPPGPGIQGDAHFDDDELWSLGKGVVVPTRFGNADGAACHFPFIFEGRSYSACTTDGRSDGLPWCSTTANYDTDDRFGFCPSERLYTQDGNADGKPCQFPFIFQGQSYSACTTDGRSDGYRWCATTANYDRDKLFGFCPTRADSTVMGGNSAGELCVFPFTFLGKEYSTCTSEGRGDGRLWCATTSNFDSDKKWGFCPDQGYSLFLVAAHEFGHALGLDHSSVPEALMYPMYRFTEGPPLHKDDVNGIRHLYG

Row | SMILES | inhibition at 100 µM [1] [%] | MMP-8 inhibition in library screen (result in words) [2, 3] | MMP-8 inhibition in library screen [2, 3] [%] | IC50 [2] [µM] | ΔY (efficacy of MMP-8 inhibition) [2] [%]
1 | CCOC(=O)c1c(C)oc2cc(OCC3CCCCC3)c(OCc3oc4cc(OCC5CCCCC5)c(OS(=O)(=O)O)cc4c3C(=O)OCC)cc12 [NSGM 29] | > 80 | did not inhibit MMP-8 | – | – | –
2 | O=c1c2ccccc2nc(-c2ccc(OS(=O)(=O)O)cc2)n1CCCCCCCCCn1cc(Cn2c(-c3ccc(OS(=O)(=O)O)cc3)nc3ccccc3c2=O)nn1 [NSGM 40] | – | – | > 80 | 25 ± 1 | 100 ± 2
3 | O=c1c2ccccc2nc(-c2ccc(OS(=O)(=O)O)cc2)n1CCCCCCCCCCn1cc(Cn2c(-c3ccc(OS(=O)(=O)O)cc3)nc3ccccc3c2=O)nn1 [NSGM 41] | – | – | > 80 | 15 ± 1 | 97 ± 2
4 | O=c1c2ccccc2nc(-c2ccc(OS(=O)(=O)O)cc2)n1CCCCCCCCCCCCn1cc(Cn2c(-c3ccc(OS(=O)(=O)O)cc3)nc3ccccc3c2=O)nn1 [NSGM 42] | – | – | > 80 | 34 ± 4 | 98 ± 8
